Series [1] relates to Ehrlich ascites carcinoma. In words: effect on Ehrlich ascites carcinoma. As to conditions: large single dose. The format is in vivo, outbred Swiss mice. As to the method:
Transplantation was carried out into outbred Swiss mice at a level of 5×10^6 ascites tumor cells. Administration of RGH-4451 was started 24 hours after transplantation.

The conditions of series [2]: in vivo.

On to `CCC12CN3CCc4c([nH]c5ccccc45)C(C(=O)OC)(c4cc5c(cc4OC)N(C=O)C4C(O)(C(=O)OC)C(OC(C)=O)C6(CC)C=CCN7CCC54C76)CC(C3)C1O2` (centres unmarked) [N-desmethyl-N-formyl-leurosine, reference compound], for which the “effect of a large single dose on the duration of life” value in series [1] was “did not increase the duration of life”. Besides, the “MTD/min eff. D” value in series [2] is given as 4.
